Literature values, collected in paper PMC7599555 (Biomedicines, 2020).

Test system: TTX-sensitive channels; NaV1.8

## NC1=N[C@H](O)[C@H]2[C@H]3O[C@]4(O)O[C@@H]([C@@H](O)[C@@]2(N1)[C@@H]4O)[C@]3(O)CO [TTX, tetrodotoxin]
  inhibition of TTX-sensitive channels and NaV1.8: fully inhibits TTX-sensitive channels but not NaV1.8
